Laboratory results published in paper PMC8160438, “A Novel Heptapeptide, GPPGPAG Transfers to the Brain, and Ameliorates Memory Dysfunction and Dendritic Atrophy in Alzheimer’s Disease Model Mice” (Frontiers in Pharmacology, 2021).
No end group written: not given here.

Legend:
Stability in saline = assay type: physicochemical; conditions: 5 μg/ml, 37°C, 0, 10, 60, 180 min, LC-MS, n = 1
Protocol: (§1) For intraventricular administration, GPPGPAG was dissolved in artificial cerebrospinal fluid (ACSF; 130 mM NaCl, 24 mM NaHCO3, 3.5 mM KCl, 1.3 mM Na2HPO4, 2 mM CaCl2, 2 mM MgCl2 6H2O, and 10 mM glucose at pH 7.4) for use. GPPGPAG or ACSF was continuously injected for 28 days into the left ventricle (bregma: −0.2 mm, lateral: 1.0 mm, depth: −3.0 mm) using Alzet Osmotic Pump (1004, DURECT Corporation, CA, United States) and ALZET Brain Infusion Kit 3 (DURECT Corporation). Based on the amount of CSF produced which was 18 μL/h and the pump flow rate of 0.11 μL/h, the peptide in the pump was estimated to be diluted 164 times in the CSF to reach a final concentration 10 nM which was the effective dose in the cultured neuron experiments. Therefore 1.64 µM GPPGPAG was loaded into the pump. Stability of GPPGPAG in saline, mouse plasma and mouse cerebral cortex was confirmed by LC-MS quantification. GPPGPAG was mixed with saline or plasma at 5 μg/ml concentration. Otherwise, GPPGPAG was mixed with cortical lysate at 6.5 μg/g of cortex. After incubation at 37°C for 0, 10, 60, and 180 min, samples were dried up and served to LC-MS. Areas of MS peaks of GPPGPAG were quantified. […]
(§2) Stability of GPPGPAG in biological fluids.
(§3) (A) GPPGPAG was mixed with saline at 5 μg/ml concentration. (B) GPPGPAG was mixed with mouse plasma at 5 μg/ml concentration. […]

[1] = Plasma level after oral administration, LC-MS; assay type: in vivo; conditions: 500 mg/animal, ddY mice, female, 8 weeks, 500 mg/mouse p.o. single dose, sampled at 10, 60, 180 min, n = 3, read-out: time of peak in the plasma (converted)
Protocol: Bioavailability and brain penetration of GPPGPAG was performed as previously described ([Yang et al., 2017]). GPPGPAG (500 mg) was dissolved in 750 μL of physiological saline. GPPGPAG or vehicle solution (physiological saline) was orally administered using an oral gavage to female ddY mice (8 weeks-old). The mice were euthanized at 10, 60, and 180 min after administration. Blood was collected and centrifuged at 10,000 g and 4°C for 10 min to yield plasma. Plasma aliquots (200 μL) were extracted with methanol, dried, sonicated, and resolubilized in 50% methanol (100 μL). The cerebral cortex was also collected after complete saline perfusion for removing blood. […]
FIGURE 6 Brain penetration of GPPGPAG after oral administration in mice GPPGPAG (500 mg/mouse, p. o.) or vehicle solution (physiological saline) was administered to mice (ddY, females, 8 weeks old, n = 3) as a single dose. […] (A) Total ion chromatogram (upper) and extracted ion current chromatogram (lower) of standard GPPGPAG (m/z = 552.2753) at 10 μg/ml for quantification of (B) and (C) data. […] In total ion chromatogram (upper) and extracted ion current chromatogram (lower) of m/z = 552.2753, no peaks were detected. […] In total ion chromatogram and extracted ion current chromatogram of m/z = 552.2753, peaks matching the retention time of GPPGPAG were detected. […]

[2] = Stability in lysate of mouse cerebral cortex; assay type: in vitro ADME
Protocol: as §1, §2, §3

[3] = Stability in mouse plasma; assay type: in vitro ADME; conditions: 5 μg/ml, 37°C, 0, 10, 60, 180 min, LC-MS, n = 1
Protocol: as §1, §2, §3

cortical neurons = assay: Entry into cultured cortical neurons, LC-MS of the lysate; assay type: in vitro ADME, mouse; conditions: 1 mg/dish, 1.0 x 10^7 cells/10-cm dish, 0, 10, 20, 30, 60, 180, 360 min
Protocol: Intracellular amount of GPPGPAG after addition to cultured cortical neurons.
Mouse cortical neurons were seeded at 1.0 x 10^7 cells/10-cm dish. After 3 – 4 days culture, 1 mg/dish GPPGPAG was added. Incubation time was 0, 10,20, 30, 60, 180 and 360 min. After complete washing by PBS, cell lysate was prepared by M-PER solution. The lysate was ultrasonicated with methanol for 60 sec, and centrifuged (12000g) for 10 min at 4℃. Supernatant was dried up and served for […]
(1 picture or pasted object on this page, not shown here)

## GPPGPAG [GPPGPAG]
Stability in saline
  stability, amount remaining (MS peak area): not declined during 180 min-incubation
[1]
  Tmax: 10 min
[2]; fresh lysate of mouse cerebral cortex, 6.5 μg/g of cortex, 37°C, 0, 10, 60, 180 min, LC-MS, n = 1
  stability, amount remaining (MS peak area): declined at 60 min after the incubation
[2]; inferred from stability in plasma and cortical lysate
  time retained in the brain after entering: ≤ 10 min
[3]
  stability, amount remaining (MS peak area): gradually reduced after 60-min incubation
Cortical neurons
  entry into the neurons (intracellular amount): detected from 10 min after treatment and gradually increased up to 360 min afterward
